Data: patent US6057135A, “Process for manufacturing D-tagatose” (Kraft Foods, Inc., priority 1992, dated 2000)

Key:
L-arabinose isomerase [1] = target: T1, L-arabinose isomerase (Lactiplantibacillus pentosus, UniProt Q6UA74); test: L-arabinose isomerase activity assay (cysteine-carbazole ketose determination), enzyme from Lactobacillus pentosus ATCC 8041; assay type: biochemical; conditions: for Enzyme Activity: 10 minutes, 0.1 M L-arabinose or 0.2 M D-galactose as substrate; for % Activity with activator (None = 100): metal ion activator, bioconversion of D-galactose
T1 construct: whole cells, sonicated cell-free extract or immobilized, from L-arabinose-induced culture
T1 sequence (Q6UA74 1-474): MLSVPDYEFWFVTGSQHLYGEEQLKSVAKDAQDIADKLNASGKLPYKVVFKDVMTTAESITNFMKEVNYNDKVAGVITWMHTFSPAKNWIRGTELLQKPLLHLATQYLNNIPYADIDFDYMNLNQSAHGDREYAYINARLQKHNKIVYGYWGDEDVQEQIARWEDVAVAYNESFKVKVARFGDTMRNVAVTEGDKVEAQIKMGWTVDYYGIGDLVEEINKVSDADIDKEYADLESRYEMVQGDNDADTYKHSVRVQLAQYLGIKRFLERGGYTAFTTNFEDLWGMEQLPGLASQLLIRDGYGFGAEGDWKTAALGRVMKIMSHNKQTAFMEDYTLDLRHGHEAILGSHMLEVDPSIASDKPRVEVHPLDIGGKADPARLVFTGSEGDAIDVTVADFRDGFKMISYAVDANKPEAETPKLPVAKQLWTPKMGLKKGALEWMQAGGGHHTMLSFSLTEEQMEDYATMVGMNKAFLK
Method: The activity of L-arabinose isomerase can be assayed based on the appearance of keto-pentose (L-ribulose) or keto-hexose (D-tagatose) after incubation in the presence of the substrate aldo-pentose (L-arabinose) or aldo-hexose (D-galactose), respectively. The keto-pentose or keto-hexose can be measured colorimetrically utilizing cysteine-carbazole sulfuric acid as a reagent. The cysteine-carbazole method is described in, Zacharias Dische, "Color Reaction of Ketoses with Carbazole and Sulfuric Acid", Methods in Carbohydrate Chemistry (1962) page 481 [132]. Samples should be analyzed in duplicate, utilizing one sample as a blank to correct for substances which may interfere with the calorimetric ketose determination.
For purposes of this specification, one unit of L-arabinose isomerase activity is defined as that amount of enzyme which is required to produce one micromole of L-ribulose or D-tagatose from the respective substrates, L-arabinose or D-galactose, following ten minutes of incubation under assay conditions.
Following 24 hours of propagation, the cell mass was harvested and washed with a phosphate or maleate buffer at pH 6.5. The L-arabinose isomerase was extracted from the harvested cells by sonication.
To 1.0 ml of the bioconversion reaction medium (using a dilution factor if needed) the following is added:
0.2 ml of cystein hydrochloride (1.5% in water);
6.0 ml 75% sulfuric acid (450 ml conc. sulfuric acid+190 ml water); and
0.2 ml of 0.12% alcohol solution of carbazole (0.12 gram carbazole in 100 ml 95% ethanol).
The test tubes are incubated for 10 minutes at 57° C. and optical density (O.D.) is read at 540. The D-galactose substrate is used as a blank for reference.
A series of bioconversions were conducted with varied parameters to determine optimum conditions for Lactobacillus pentosus L-arabinose isomerase.

L-arabinose isomerase [2] = conditions: cited from earlier work; for affinity of the isomerase for the sugar: Yamanaka and Wood, 1966
L-arabinose isomerase [3] = target: T2, L-arabinose isomerase (Bacillus amyloliquefaciens, UniProt A0A9P1JJ98); test: L-arabinose isomerase bioconversion of D-galactose to D-tagatose, enzyme from Bacillus amyloliquefaciens IFO 3022; assay type: biochemical; conditions: 1.67 M D-galactose, 0.005 M metallic ion, 60° C., 120 min.; for O.D. (X - B): O.D. 540, dilution 200×
T2 construct: crude enzyme
T2 sequence (A0A9P1JJ98 1-499): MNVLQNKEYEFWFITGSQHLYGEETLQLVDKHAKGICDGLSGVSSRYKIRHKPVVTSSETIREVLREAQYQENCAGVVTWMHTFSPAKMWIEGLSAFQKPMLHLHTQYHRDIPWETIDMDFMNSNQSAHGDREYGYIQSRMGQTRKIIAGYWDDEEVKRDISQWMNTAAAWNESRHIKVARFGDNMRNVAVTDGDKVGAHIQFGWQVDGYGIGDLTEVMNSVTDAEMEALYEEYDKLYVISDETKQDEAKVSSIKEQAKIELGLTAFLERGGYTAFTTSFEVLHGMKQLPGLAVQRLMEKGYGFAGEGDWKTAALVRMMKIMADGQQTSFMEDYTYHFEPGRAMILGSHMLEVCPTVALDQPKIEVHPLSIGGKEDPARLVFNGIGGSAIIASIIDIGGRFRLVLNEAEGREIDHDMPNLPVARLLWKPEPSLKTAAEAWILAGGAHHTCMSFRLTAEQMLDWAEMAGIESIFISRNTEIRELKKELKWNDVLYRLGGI
Method: Bacillus amyloliquefaciens (previously known as Bacillus subtilis, IFO 3022, was evaluated as a source of L-arabinose isomerase. Cells of the culture were propagated on the same medium as used in Example 1 in the presence of L-arabinose as a carbon source. Optimum pH, temperature, metal ion and metal ion concentration were evaluated as summarized below.
In the following tests, sample B was comprised of 0.8 ml. D-galactose and 0.2 ml. water and sample X was comprised of 0.8 ml. D-galactose an 0.2 ml. enzyme. The dilution factor for the optical density (O.D.) reading was 200×. (The cystein carbazole method was used for the D-tagatose assay.)

L-arabinose isomerase [4] = test: L-arabinose isomerase bioconversion of D-galactose to D-tagatose, enzyme from Arthrobacter sp. ATCC 21920; assay type: biochemical; conditions: 1.67 M D-galactose, 0.005 M metallic ion, 60° C., 120 min.; for O.D. (X - B): O.D. 540, dilution 200×
Method: The cultures were screened based on cell propagation on medium #1 of Example 3 in the presence of L-arabinose as a carbon source.
Cells of Arthrobacter sp. ATCC 21920 were propagated on medium #1 of Example 3 in the presence of L-arabinose as a carbon source. Optimum pH, temperature, metal ion and metal ion concentration were evaluated on the cell extract containing L-arabinose isomerase as summarized below.
In the following tests, sample B was comprised of 0.8 ml. D-galactose and 0.2 ml. water and sample X was comprised of 0.8 ml. D-galactose and 0.2 ml. enzyme. The dilution factor for the optical density (O.D.) reading was 200×.

Row | % Activity with activator (None = 100) (L-arabinose isomerase [1]) | D-TAGATOSE (L-arabinose isomerase [3]) | O.D. (X - B) (L-arabinose isomerase [3]) | D-TAGATOSE (L-arabinose isomerase [4]) | O.D. (X - B) (L-arabinose isomerase [4]) | SMILES | Enzyme Activity (L-arabinose isomerase [1]; 35° C.) | Enzyme Activity (L-arabinose isomerase [1]; 60° C.) | total activity, Present Invention Data (L-arabinose isomerase [1]; substrate as labelled, propagation 24 hours, 37° C., pH 6.5, BYF 100 medium) | activity (10 min.), Present Invention Data (L-arabinose isomerase [1]; substrate as labelled, propagation 24 hours, 37° C., pH 6.5, BYF 100 medium, per g cell mass) | affinity of the isomerase for the sugar (L-arabinose isomerase [2]) | total activity, Published Data (L-arabinose isomerase [2]; substrate as labelled, propagation 24 hours, 37° C.) | activity (10 min.), Published Data (L-arabinose isomerase [2]; substrate as labelled, propagation 24 hours, 37° C., per g cell mass)
1 | – | – | – | – | – | O=C[C@H](O)[C@@H](O)[C@@H](O)CO [L-arabinose, reference compound] | 24.6 u/ml. | 68.1 u/ml. | 4,220 u/L. | 425 u/g. | high affinity | 525 u/L. | 350 u/g.
2 | – | – | – | – | – | C[C@@H](O)[C@H](O)[C@H](O)[C@@H](O)C=O [D-fucose] | – | – | – | – | low affinity | – | –
3 | 110% | 7 mM | 0.1596 | 0.012 M | 0.2544 | [Zn+2] [Zinc] | – | – | – | – | – | – | –
4 | 141% | 5 mM | 0.1048 | 0.036 M | 0.7890 | [Mg] [Magnesium] | – | – | – | – | – | – | –

Row | SMILES | % Activity with activator (None = 100) (L-arabinose isomerase [1]) | D-TAGATOSE (L-arabinose isomerase [3]) | O.D. (X - B) (L-arabinose isomerase [3]) | D-TAGATOSE (L-arabinose isomerase [4]) | O.D. (X - B) (L-arabinose isomerase [4]) | Enzyme Activity (L-arabinose isomerase [1]; 35° C.) | Enzyme Activity (L-arabinose isomerase [1]; 60° C.) | total activity, Present Invention Data (L-arabinose isomerase [1]; substrate as labelled, propagation 24 hours, 37° C., pH 6.5, BYF 100 medium) | activity (10 min.), Present Invention Data (L-arabinose isomerase [1]; substrate as labelled, propagation 24 hours, 37° C., pH 6.5, BYF 100 medium, per g cell mass) | affinity of the isomerase for the sugar (L-arabinose isomerase [2]) | total activity, Published Data (L-arabinose isomerase [2]; substrate as labelled, propagation 24 hours, 37° C.) | activity (10 min.), Published Data (L-arabinose isomerase [2]; substrate as labelled, propagation 24 hours, 37° C., per g cell mass)
5 | [Co+2] [Cobalt] | 200% | 5 mM | 0.0970 | 0.050 M | 1.0764 | – | – | – | – | – | – | –
